Source: ChEMBL document CHEMBL1127104, “L-708,474: The C5-cyclohexyl analogue of L-365,260, a selective high affinity ligand for the CCKB/gastrin receptor” (Bioorg Med Chem Lett, 1993)

biological target: T1, Cholecystokinin receptor type A (Rattus norvegicus, UniProt P30551); assay: In vitro test for inhibition of [125I]CCK binding to Cholecystokinin type A receptor from rat pancreatic tissues was determined
T1 sequence (P30551 whole entry): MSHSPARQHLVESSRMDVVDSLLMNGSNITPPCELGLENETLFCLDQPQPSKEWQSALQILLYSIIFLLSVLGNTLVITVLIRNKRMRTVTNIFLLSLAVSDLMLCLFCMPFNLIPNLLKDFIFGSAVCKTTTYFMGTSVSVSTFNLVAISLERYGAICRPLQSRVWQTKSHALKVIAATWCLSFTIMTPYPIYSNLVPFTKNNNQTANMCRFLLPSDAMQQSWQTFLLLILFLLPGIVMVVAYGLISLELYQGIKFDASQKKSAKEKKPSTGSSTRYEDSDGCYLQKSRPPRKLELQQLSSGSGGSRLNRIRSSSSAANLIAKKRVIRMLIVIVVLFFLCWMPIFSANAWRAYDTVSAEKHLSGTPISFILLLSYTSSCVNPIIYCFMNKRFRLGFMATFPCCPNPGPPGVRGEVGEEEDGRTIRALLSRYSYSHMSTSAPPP

| Structure (SMILES) | IC50 [nM] |
| --- | --- |
| Cc1cccc(NC(=O)NC2N=C(C3CCC3)c3ccccc3N(C)C2=O)c1 (stereo not drawn) | 402 |
| Cc1cccc(NC(=O)NC2N=C(C3CCCC3)c3ccccc3N(C)C2=O)c1 (stereo not drawn) | 27.1 |
| Cc1cccc(NC(=O)N[C@@H]2N=C(c3ccccc3)c3ccccc3N(C)C2=O)c1 [L-365260] | 736 |
